Laboratory results: US7183099B2, “Inhibitors of autoinducer transporters” (Princeton University, priority 2001, dated 2007)

Key:
[1] = test system: V. harveyi reporter strain BB170 (Sensor 1−, Sensor 2+); type: cell-based, Vibrio harveyi; details: candidates for the signal tested
Procedure: Cell-free culture fluids from E. coli, S. typhimurium and V. harveyi strains were tested for the presence of signaling substances that could induce luminescence in the V. harveyi reporter strain BB170 or BB886. […] Positive control wells contained 10 μl of cell-free culture fluid from strain V. harveyi BB152 (Autoinducer-1^−, Autoinducer-2^+) or V. harveyi BB120 (Autoinducer-1^+, Autoinducer-2^+). Negative control wells contained 10 μl of sterile growth medium. The microtiter dishes were shaken in a rotary shaker at 175 rpm at 30° C.
The cell density was measured by diluting the same aliquots of cells used for measuring luminescence, spreading the dilutions onto solid LM medium, incubating the plates overnight at 30° C., and counting the resulting colonies the following day. […] Cell-free culture supernatants from V. harveyi or S. typhimurium strains were added to a final concentration of 10% (v/v) at the time of the first measurement. In control experiments, 10% (v/v) of AB medium, LB medium or LB medium containing 0.5% glucose was added instead of cell-free culture fluids.

[2] = test system: V. harveyi reporter strain BB886 (Sensor 1+, Sensor 2−); assay: V. harveyi BB886 luminescence stimulation bioassay; type: cell-based, Vibrio harveyi; details: non self-stimulating sensor-1+, sensor-2− mutant (BB886)
Procedure: Assay for production of signaling compounds. Cell-free culture fluids from E. coli, S. typhimurium and V. harveyi strains were tested for the presence of signaling substances that could induce luminescence in the V. harveyi reporter strain BB170 or BB886. In the assays, 10 μl of cell-free culture fluids from E. coli ABI157, E. coli DH5, and S. typhimurium LT2 strains grown and harvested as described above were added to 96-well microtiter dishes. The V. harveyi reporter strain BB170 or BB886 was grown for 16 h at 30° C. with aeration in AB medium, diluted 1:5000 into fresh AB medium, and 90 µl of the diluted cells were added to the wells containing the E. coli and S. typhimurium cell-free culture fluids. Positive control wells contained 10 μl of cell-free culture fluid from strain V. harveyi BB152 (Autoinducer-1^−, Autoinducer-2^+) or V. harveyi BB120 (Autoinducer-1^+, Autoinducer-2^+). Negative control wells contained 10 μl of sterile growth medium. […] Every hour, light production was measured using a Wallac Model 1450 Microbeta Plus liquid scintillation counter in the chemiluminescence mode. The V. harveyi cell density was measured by diluting the same aliquots of cells used for measuring luminescence, spreading the dilutions onto solid LM medium (Bassler et al., 1993, supra), incubating the plates overnight at 30° C., and counting the resulting colonies the following day. […]

Structure (SMILES) | activity (induction of luminescence expression in V. harveyi) [1] | lowest concentration to which the assay was sensitive [2] [nM]
O=C(O)CCC(=O)C(=O)O [-ketoglutarate, reference compound] | None of these compounds has activity | 
C[C@@H](O)CC(=O)N[C@H]1CCOC1=O [AI-1, N-(3-hydroxybutanoyl)-L-homoserine lactone, reference compound] |  | 100
CC(=O)O [acetate, reference compound] | None of these compounds has activity | 
N[C@H]1CCOC1=O [homoserine lactone, reference compound] | None of these compounds has activity | 
